≈ marks a conversion by molar mass, not a printed value. Calls of active or inactive are those of the source. The calls are words filed in the database; no cut-off is given here.

Data on 20 molecules can be found in ChEMBL document CHEMBL1926617, “Antifungal activities of novel non-azole molecules against S. cerevisiae and C. albicans” (Eur J Med Chem, 2012).

Experiment [1] has as its system Saccharomyces cerevisiae. Briefly: Fungistatic activity against Saccharomyces cerevisiae ATCC 24657 assessed as cell proliferation at 100 uM after 24 hrs by spectrophotometric bioassay. It counts as functional, organism-based.
In experiment [2] the test system is Saccharomyces cerevisiae. Briefly: Fungistatic activity against Saccharomyces cerevisiae ATCC 24657 assessed as cell growth at 100 uM after 48 hrs by spectrophotometric bioassay. Format: functional, organism-based.
In a further experiment the target is Cytochrome P450 3A4 (Homo sapiens, UniProt P08684). Kind of experiment: Inhibition of human recombinant CYP3A4. It counts as ADME.
Experiment [3] deals with Candida albicans. Briefly: Antifungal activity against Candida albicans ATCC 32032 assessed as growth inhibition after 24 to 48 hrs by agar plate bioassay. It counts as functional.
The target in a further experiment is Cytochrome P450 2C9 (Homo sapiens, UniProt P11712). Briefly: Inhibition of human recombinant CYP2C9. It counts as ADME.
A further experiment concerns the target T1, Cytochrome P450 1A2 (Homo sapiens, UniProt P05177).
T1 sequence (P05177 whole entry): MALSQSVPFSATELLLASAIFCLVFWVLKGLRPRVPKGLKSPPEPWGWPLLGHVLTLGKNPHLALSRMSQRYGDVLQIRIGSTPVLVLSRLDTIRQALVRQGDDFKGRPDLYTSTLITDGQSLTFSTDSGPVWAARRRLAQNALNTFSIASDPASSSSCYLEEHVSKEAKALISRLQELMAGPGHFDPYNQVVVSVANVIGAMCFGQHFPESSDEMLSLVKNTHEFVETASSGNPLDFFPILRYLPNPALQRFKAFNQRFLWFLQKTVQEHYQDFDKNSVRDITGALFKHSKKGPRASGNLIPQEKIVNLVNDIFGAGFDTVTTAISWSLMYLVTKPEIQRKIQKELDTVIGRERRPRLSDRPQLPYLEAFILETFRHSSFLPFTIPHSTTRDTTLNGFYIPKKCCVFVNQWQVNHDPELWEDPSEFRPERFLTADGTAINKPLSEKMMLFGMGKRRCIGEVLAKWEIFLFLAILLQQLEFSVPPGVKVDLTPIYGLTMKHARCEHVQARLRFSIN
Kind of experiment: Inhibition of human recombinant CYP1A2. It counts as ADME.

Experiment [4] relates to Saccharomyces cerevisiae. Briefly: Antifungal activity against Saccharomyces cerevisiae ATCC 24657 assessed as growth inhibition after 24 to 48 hrs by agar plate bioassay. Format: functional.
The target in the next experiment is Cytochrome P450 2C19 (Homo sapiens, UniProt P33261). Briefly: Inhibition of human recombinant CYP2C19. It counts as ADME.
The target of the next experiment is Cytochrome P450 2D6 (Homo sapiens, UniProt P10635). Briefly: Inhibition of human recombinant CYP2D6. It counts as ADME.
For experiment [5], the system named is Saccharomyces cerevisiae. Briefly: Fungistatic activity against Saccharomyces cerevisiae ATCC 24657 assessed as cell proliferation at 100 uM after 24 hrs by agar plate bioassay relative to control. Format: functional. Particulars: ATCC 24657, 24 h.
Experiment [6] deals with Saccharomyces cerevisiae. Kind of experiment: Antifungal activity against Saccharomyces cerevisiae ATCC 24657 assessed as growth inhibition after 24 to 48 hrs by spectrophotometric bioassay. It counts as functional.
Experiment [7] has as its system Saccharomyces cerevisiae. Kind of experiment: Fungistatic activity against Saccharomyces cerevisiae ATCC 24657 assessed as cell proliferation compound after 24 to 48 hrs by agar plate bioassay. It counts as functional, organism-based.
Experiment [8] concerns Saccharomyces cerevisiae. Kind of experiment: Fungistatic activity against Saccharomyces cerevisiae ATCC 24657 assessed as cell proliferation compound after 24 to 48 hrs by spectrophotometric bioassay. Format: functional, organism-based.
For experiment [9], the system named is Saccharomyces cerevisiae. Briefly: Antifungal activity against Saccharomyces cerevisiae ATCC 24657 assessed as growth inhibition at 90.7 uM after 24 hrs by spectrophotometric bioassay. It counts as functional, organism-based.
Experiment [10] has as its system Saccharomyces cerevisiae. Briefly: Fungistatic activity against Saccharomyces cerevisiae ATCC 24657 assessed as cell growth at 90.7 uM after 48 hrs by spectrophotometric bioassay. Format: functional, organism-based.
In experiment [11] the test system is Saccharomyces cerevisiae. Briefly: Antifungal activity against Saccharomyces cerevisiae ATCC 24657 assessed as growth at 90.7 uM after 48 hrs by spectrophotometric bioassay relative to control. Format: functional.
The subject of experiment [12] is Saccharomyces cerevisiae. Kind of experiment: Fungistatic activity against Saccharomyces cerevisiae ATCC 24657 assessed as cell proliferation at 90.7 uM after 24 hrs by spectrophotometric bioassay. It counts as functional, organism-based.
The test system of experiment [13] is Saccharomyces cerevisiae. Kind of experiment: Antifungal activity against Saccharomyces cerevisiae ATCC 24657 assessed as growth inhibition at 90.7 uM after 24 hrs by agar plate bioassay. It counts as functional, organism-based.
Experiment [14] has as its system Saccharomyces cerevisiae. Kind of experiment: Antifungal activity against Saccharomyces cerevisiae ATCC 24657 assessed as growth at 90.7 uM after 48 hrs by agar plate bioassay relative to control. It counts as functional.
For experiment [15], the system named is Candida albicans. Kind of experiment: Antifungal activity against Candida albicans assessed as morphogenetic transformation after 3 hrs by phase-contrast microscopy. Format: functional.
In experiment [16] the test system is Saccharomyces cerevisiae. Kind of experiment: Fungistatic activity against Saccharomyces cerevisiae ATCC 24657 assessed as cell proliferation at 90.7 uM after 24 hrs by agar plate bioassay relative to control. Format: functional. The settings on record: ATCC 24657, 24 h.
Experiment [17] concerns Saccharomyces cerevisiae. Kind of experiment: Antifungal activity against Saccharomyces cerevisiae ATCC 24657 assessed as growth inhibition at 31.2 uM after 24 to 48 hrs by agar plate bioassay. It counts as functional, organism-based.
For experiment [18], the system named is Saccharomyces cerevisiae. Kind of experiment: Antifungal activity against Saccharomyces cerevisiae ATCC 24657 assessed as growth inhibition at 31.2 uM after 24 to 48 hrs by spectrophotometric bioassay. Format: functional, organism-based.

Chain of Cytochrome P450 2D6 (P10635 whole entry): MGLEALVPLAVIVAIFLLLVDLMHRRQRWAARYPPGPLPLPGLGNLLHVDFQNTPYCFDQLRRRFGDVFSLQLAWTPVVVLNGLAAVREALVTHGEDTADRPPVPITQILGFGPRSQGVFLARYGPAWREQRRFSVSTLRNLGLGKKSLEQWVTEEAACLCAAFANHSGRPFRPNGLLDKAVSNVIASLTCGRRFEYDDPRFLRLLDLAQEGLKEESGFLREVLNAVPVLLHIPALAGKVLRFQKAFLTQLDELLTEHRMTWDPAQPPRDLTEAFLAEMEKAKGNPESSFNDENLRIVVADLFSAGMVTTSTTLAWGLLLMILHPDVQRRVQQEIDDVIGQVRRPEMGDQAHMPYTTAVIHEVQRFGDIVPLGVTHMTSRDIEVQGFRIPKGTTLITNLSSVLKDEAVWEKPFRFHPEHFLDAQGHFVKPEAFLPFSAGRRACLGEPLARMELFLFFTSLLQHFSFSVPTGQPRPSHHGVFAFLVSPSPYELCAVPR
Chain of Cytochrome P450 3A4 (P08684 whole entry): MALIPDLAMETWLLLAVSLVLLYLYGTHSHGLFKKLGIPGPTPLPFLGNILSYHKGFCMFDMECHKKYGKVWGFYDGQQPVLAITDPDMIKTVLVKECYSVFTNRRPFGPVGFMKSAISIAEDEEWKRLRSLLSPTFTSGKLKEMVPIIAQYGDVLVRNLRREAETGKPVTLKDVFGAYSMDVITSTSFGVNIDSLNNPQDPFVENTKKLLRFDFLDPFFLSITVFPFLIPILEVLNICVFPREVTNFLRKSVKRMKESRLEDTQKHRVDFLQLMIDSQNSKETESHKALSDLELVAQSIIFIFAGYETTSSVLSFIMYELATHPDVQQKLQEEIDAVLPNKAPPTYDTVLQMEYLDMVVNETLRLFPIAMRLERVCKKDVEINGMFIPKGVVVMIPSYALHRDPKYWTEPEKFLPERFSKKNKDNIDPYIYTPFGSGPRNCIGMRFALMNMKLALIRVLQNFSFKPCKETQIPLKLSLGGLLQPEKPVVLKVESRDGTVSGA
Chain of Cytochrome P450 2C19 (P33261 whole entry): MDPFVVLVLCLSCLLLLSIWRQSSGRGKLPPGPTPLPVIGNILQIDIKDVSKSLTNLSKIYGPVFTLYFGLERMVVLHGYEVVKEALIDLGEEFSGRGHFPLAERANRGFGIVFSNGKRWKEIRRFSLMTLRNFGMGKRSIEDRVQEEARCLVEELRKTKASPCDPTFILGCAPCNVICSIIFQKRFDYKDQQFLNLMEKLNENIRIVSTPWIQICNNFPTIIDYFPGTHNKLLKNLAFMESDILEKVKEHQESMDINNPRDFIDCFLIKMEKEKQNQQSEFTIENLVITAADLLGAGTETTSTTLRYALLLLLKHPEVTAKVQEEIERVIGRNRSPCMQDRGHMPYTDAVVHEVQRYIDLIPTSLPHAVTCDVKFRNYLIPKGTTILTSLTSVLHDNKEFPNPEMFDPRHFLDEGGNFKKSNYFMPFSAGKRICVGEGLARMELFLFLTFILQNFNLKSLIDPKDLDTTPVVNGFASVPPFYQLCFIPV
Chain of Cytochrome P450 2C9 (P11712 whole entry): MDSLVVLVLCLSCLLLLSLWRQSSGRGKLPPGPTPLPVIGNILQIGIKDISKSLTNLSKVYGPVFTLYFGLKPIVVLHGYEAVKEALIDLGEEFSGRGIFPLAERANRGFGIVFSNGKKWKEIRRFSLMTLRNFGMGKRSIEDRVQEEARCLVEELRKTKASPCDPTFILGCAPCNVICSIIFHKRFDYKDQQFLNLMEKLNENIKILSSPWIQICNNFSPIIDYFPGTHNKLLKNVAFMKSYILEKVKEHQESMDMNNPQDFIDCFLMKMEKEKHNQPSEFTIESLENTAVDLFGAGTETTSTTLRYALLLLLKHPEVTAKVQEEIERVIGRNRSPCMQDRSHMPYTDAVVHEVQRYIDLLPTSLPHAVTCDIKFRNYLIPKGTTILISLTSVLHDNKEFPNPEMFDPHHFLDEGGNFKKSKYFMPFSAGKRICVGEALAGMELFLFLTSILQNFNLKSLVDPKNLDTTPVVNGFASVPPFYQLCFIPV

As to `COc1ccc(-c2sc(/N=C/c3ccc(N(C)CCC#N)cc3)c(C#N)c2C)cc1OC`, the outcome in the experiment on Saccharomyces cerevisiae [1] was Active. For the same molecule, the outcome in the experiment with Saccharomyces cerevisiae [2] was inactive. Also, the half-inhibitory concentration (IC50) on Cytochrome P450 3A4 is 33.2 µM; on Cytochrome P450 2C9, 1200 nM; on Cytochrome P450 1A2, 11.9 µM; on Cytochrome P450 2C19, 1100 nM; at Cytochrome P450 2D6, 23.3 µM. In addition, the values for the MIC in the experiment with Candida albicans [3] and with Saccharomyces cerevisiae [4] were 12 µM (≈ 5.33 µg/mL) and 118 µM (≈ 52.5 µg/mL), respectively. In addition, the MIC50 in the experiment with Saccharomyces cerevisiae [4] was 2.7 µM (≈ 1.2 µg/mL). In the experiment on Saccharomyces cerevisiae [5], the inhibition at 100 µM came out at 95%.
With `C=CCNc1ncnc2sc3c(c12)CCCC3`, in the experiment on Saccharomyces cerevisiae [4], the “growth inhibition (GI)” value was “inactive”. Moreover, in the experiment on Saccharomyces cerevisiae [6], the MIC turned out to be 100 µM (≈ 24.5 µg/mL) and the MIC50 came out at 9.98 µM (≈ 2.45 µg/mL). Further, in the experiment with Saccharomyces cerevisiae [7], the outcome was inactive. The result in the experiment on Saccharomyces cerevisiae [8] was inactive.
As to `CCC(C)n1ncn(-c2ccc(N3CCN(c4ccc(OCC5COC(Cn6cncn6)(c6ccc(Cl)cc6Cl)O5)cc4)CC3)cc2)c1=O` (stereo not drawn) [ITRACONAZOLE], the “growth inhibition (GI)” value with Saccharomyces cerevisiae [9] and with Saccharomyces cerevisiae [13] was “inactive” in each case. For the same molecule, the result in the experiment on Saccharomyces cerevisiae [10] was inactive. The “fold change (FC)” value with Saccharomyces cerevisiae [11] and in the experiment with Saccharomyces cerevisiae [14] was 1.5 in each case. The result with Saccharomyces cerevisiae [12] was Active. Also, the MIC in the experiment with Candida albicans [15] was more than 90.7 µM. Further, the inhibition at 90.7 µM with Saccharomyces cerevisiae [16] turned out to be 95%.
Consider `CC(=O)N1CCN(c2ccc(OCC3COC(Cn4ccnc4)(c4ccc(Cl)cc4Cl)O3)cc2)CC1` (stereo not drawn), for which the “growth inhibition (GI)” value in the experiment on Saccharomyces cerevisiae [17] and in the experiment with Saccharomyces cerevisiae [18] was “Active” in each case. Moreover, the result in the experiment on Saccharomyces cerevisiae [7] and with Saccharomyces cerevisiae [8] was inactive.
Turning to `CC1CCc2c(sc(NC(=O)Sc3nnc(-c4ccc(Cl)cc4)n3-c3ccccc3)c2C#N)C1` (stereo not drawn), in the experiment on Candida albicans [3], the MIC was more than 100 µM.
`Cc1cccc(C(=O)Nc2sc3c(c2C(N)=O)CCCC3)c1`: in the experiment on Saccharomyces cerevisiae [4], the MIC was more than 200 µM. Also, the MIC50 with Saccharomyces cerevisiae [6] came to 50 µM (≈ 15.7 µg/mL).
Consider `OC(Cn1cncn1)(Cn1cncn1)c1ccc(F)cc1F` [FLUCONAZOLE], for which, in the experiment on Candida albicans [15], the MIC turned out to be 104 µM (≈ 32 µg/mL).
On to `Cc1nn(C)c(=O)c2noc(/C=C/c3ccsc3)c12`, for which the minimal inhibitory concentration (MIC) in the experiment with Saccharomyces cerevisiae [4] was found to be 120 µM (≈ 32.8 µg/mL). In the experiment on Saccharomyces cerevisiae [4], the MIC50 is 35 µM (≈ 9.57 µg/mL). Further, the result with Saccharomyces cerevisiae [7] and in the experiment with Saccharomyces cerevisiae [8] was inactive.
For `CN(C/C=C/C#CC(C)(C)C)Cc1cccc2ccccc12` [TERBINAFINE], the minimal inhibitory concentration (MIC) in the experiment with Candida albicans [15] was determined as 439 µM (≈ 128 µg/mL).
Still for that read-out and setting: under `Clc1ccc(COC(Cn2ccnc2)c2ccc(Cl)cc2Cl)c(Cl)c1` (stereo not drawn) [MICONAZOLE] stands 76.9 µM (≈ 32 µg/mL).
As for `COc1ccc(-c2sc(/N=C/c3ccc(-c4ccccc4)cc3)c(C#N)c2C)cc1OC`, the IC50 at Cytochrome P450 3A4 was more than 100 µM; at Cytochrome P450 2C9 it was 1400 nM; on Cytochrome P450 1A2, 26 µM; at Cytochrome P450 2C19, 2300 nM; on Cytochrome P450 2D6, more than 100 µM. Also, the minimal inhibitory concentration (MIC) in the experiment on Candida albicans [3] is 8 µM (≈ 3.51 µg/mL).
For `CCC(C)(C)c1ccc(CC(C)CN2C[C@@H](C)O[C@@H](C)C2)cc1` (stereo partly drawn) [AMOROLFINE], the MIC in the experiment on Candida albicans [15] amounted to 202 µM (≈ 64 µg/mL).
For the molecule `N#CC(c1ccc2c(c1)OCO2)N(Cc1ccccc1)C(=O)c1sc2ccccc2c1Cl` (stereo not drawn), in the experiment with Saccharomyces cerevisiae [4], the minimal inhibitory concentration (MIC) is more than 200 µM.
On the same count and under the same terms, under `COc1ccc(NC(=S)N/N=C/c2ccc(N(C)CCC#N)cc2)cc1` stands more than 200 µM; under `CCCN(CCC)S(=O)(=O)c1ccc(C(=O)N/N=C/c2ccc(N(C)CCC#N)cc2)cc1`, more than 200 µM; under `Cc1nc(C)c(C(=O)N2CCC(c3nc(C(=O)N(CCC#N)Cc4ccco4)cs3)CC2)s1`, more than 200 µM.
As to `Cc1c(-c2ccccc2)sc(/N=C/c2cc(Cl)cc(Cl)c2O)c1C#N`, in the experiment on Candida albicans [3], the MIC came out at 40 µM (≈ 15.5 µg/mL).
Still for that read-out and setting: under `COc1ccc(-c2sc(/N=C/c3cc(Br)cc(Br)c3O)c(C#N)c2C)cc1OC` stands more than 100 µM.
Turning to `Cc1ccc(C(=O)N(C)Cc2ccco2)c(C2CCN(C(=O)c3cc4c(C)nn(C)c4s3)CC2)n1`, in the experiment on Saccharomyces cerevisiae [4], the MIC was more than 200 µM.
Same read-out and setting: under `Cc1ccc(C(=O)N(C)Cc2ccco2)c(C2CCN(C(=O)/C=C/c3cccs3)CC2)n1` stands more than 200 µM.
